# Test system: A375 melanoma cells
# Experiment: Inhibition of A375 cell proliferation by siTOP1 (CCK-8)
# Type: cell-based, human
# Settings: A375, siRNA 50 nM, 72 h
# Method: • 1) On the day before transfection, A375 melanoma cells were seeded into a 96-well plate at 2500-3000 cells/well, the culture medium being a total volume of 200 μL of DMEM culture medium containing 7.5% FBS and 1% Penicillin-Streptomycin, and the plate was placed in an incubator with 5% CO2 at 37° C. for 24 h to allow the cells to adhere to the wall. 5 replicate wells were made for each group. • 2) On the day of transfection, the culture medium was changed to 90 μL of reduced serum culture medium without antibiotics and containing 7.5% FBS. • 3) The siRNAs were diluted with an appropriate amount of Opti-MEM culture medium; Lipofectamine™ RNAiMAX (Lipo) transfection reagent was diluted with another appropriate amount of Opti-MEM culture medium and left to stand at room temperature for 5 min; and the two dilutions were uniformly mixed and left to stand at room temperature for 5 min. • 4) 10 μL of the mixed solution described above was added to each well to obtain a final transfection volume of 100 μL, and the working concentration of the siRNA was 50 nM. • 5) The cells were cultured in the incubator with 5% CO2 at 37° C. for 72 h.
# After 72 h of transfection, 10 μL of CCK-8 solution was added to each well, and the cells were cultured in the incubator with 5% CO2 at 37° C. for another 4 h. The absorbance value at 450 nm was measured using a microplate reader. Cell viability was calculated according to the following formula: […]
substance,measurement,value
"siTOP1-1604: siRNA targeting TOP1; target SEQ ID NO: 9, sense strand SEQ ID NO: 24, antisense strand SEQ ID NO: 39 (sense GUGUGGACAAGAUCCGGAAUU; antisense UUCCGGAUCUUGUCCACACUU; described as unmodified parent siRNA, further chemistry not given here)","Cell viability (%), mean value",41.65%
same,Inhibition of A375 cell proliferation compared to Blank,about 58%

# Reference: patent US20260139254A1, “INTERFERING RNA FOR INHIBITING TOP1 GENE EXPRESSION AND USE THEREOF” (JENKEM TECHNOLOGY CO., LTD. (BEIJING), priority 2022, published 2026)
